Article PMC10266417, “LeishIF3d is a non-canonical cap-binding protein in Leishmania” (Frontiers in Molecular Biosciences, 2023)

Key:
LeishIF4E1 = target: T1, LeishIF4E1 (Leishmania mexicana, UniProt E9AZ65); experiment: m7GTP-agarose affinity pull-down, western blot with LeishIF4E1-specific antibodies; assay type: biochemical; conditions: L. mexicana extract; m7GTP immobilised on agarose; 20 mM HEPES pH 7.4, 50 mM NaCl; 100 uM GTP wash, 200 uM m7GTP elution; positive control
T1 construct: gene LMXM_27_1620; endogenous untagged protein in L. mexicana promastigote extract, detected with specific antibodies
T1 sequence (E9AZ65 1-213): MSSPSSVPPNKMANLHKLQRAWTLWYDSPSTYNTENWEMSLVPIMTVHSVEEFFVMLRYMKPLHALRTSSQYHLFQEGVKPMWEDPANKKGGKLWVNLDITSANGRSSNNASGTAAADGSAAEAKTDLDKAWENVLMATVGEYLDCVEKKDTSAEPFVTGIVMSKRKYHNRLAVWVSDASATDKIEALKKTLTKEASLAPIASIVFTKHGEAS

LeishIF3d = target: T2, LeishIF3d (Leishmania mexicana, UniProt E9B178); experiment: m7GTP-agarose affinity binding of purified His-tagged protein, elution with free m7GTP, anti-His western blot; conditions: m7GTP immobilised on agarose; eluted with free m7GTP
T2 construct: gene LMXM_29_3040; full ORF (1596 bp); recombinant His-tagged from E. coli BL21 (pET52, Ni-NTA); mutants C-terminally SBP-tagged, expressed episomally in L. mexicana
T2 sequence (E9B178 1-531): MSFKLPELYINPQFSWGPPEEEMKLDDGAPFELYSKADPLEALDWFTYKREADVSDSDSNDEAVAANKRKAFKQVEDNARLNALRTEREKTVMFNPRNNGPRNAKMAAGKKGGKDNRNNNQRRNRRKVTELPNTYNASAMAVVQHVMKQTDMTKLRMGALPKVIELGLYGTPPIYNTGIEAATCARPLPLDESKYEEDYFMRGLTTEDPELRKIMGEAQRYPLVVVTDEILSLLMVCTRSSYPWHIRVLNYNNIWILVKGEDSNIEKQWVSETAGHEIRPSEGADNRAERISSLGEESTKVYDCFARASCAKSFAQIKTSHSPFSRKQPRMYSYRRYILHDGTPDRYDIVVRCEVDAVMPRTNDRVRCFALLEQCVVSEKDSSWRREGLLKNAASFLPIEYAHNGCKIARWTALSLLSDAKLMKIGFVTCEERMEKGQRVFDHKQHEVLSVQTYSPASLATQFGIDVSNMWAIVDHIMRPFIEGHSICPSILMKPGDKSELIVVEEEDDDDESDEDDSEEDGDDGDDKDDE

In the case of `C[n+]1cn([C@@H]2O[C@H](COP(=O)(O)OP(=O)(O)OP(=O)(O)O)[C@@H](O)[C@H]2O)c2nc(N)[nH]c(=O)c21` [m^7GTP], the “m7GTP-agarose affinity pull-down, western blot with LeishIF4E1-specific antibodi” value (LeishIF4E1) is reported as “LeishIF3d could bind m^7GTP, as did the positive control of LeishIF4E1” and the “m7GTP-agarose affinity binding of purified His-tagged protein, elution with free” value (LeishIF3d) is reported as “direct binding of recombinant His-tagged LeishIF3d to m^7GTP”.
